From ChEMBL document CHEMBL3860091, “Synthesis and activity of newly designed aroxyalkyl or aroxyethoxyethyl derivatives of piperazine on the cardiovascular and the central nervous systems” (Bioorg Med Chem Lett, 2016)
Activity calls are given as the source filed them. The calls are words filed in the database; no cut-off is given here.

Assays:
Rattus norvegicus [1] = assay: Hypotensive activity in normotensive anesthetized Wistar rat assessed as diastolic blood pressure at 0.1 mg/kg, iv measured 30 mins post dose (reference value: 81.6 to 115.2 mmHg); assay type: functional
Rattus norvegicus [2] = assay: Inhibition of methoxamine-induced pressor response in normotensive Wistar rat at 1 mg/kg, iv measured 5 mins post dose; assay type: functional, organism-based
Rattus norvegicus [3] = assay: Hypotensive activity in normotensive anesthetized Wistar rat assessed as systolic blood pressure at 0.1 mg/kg, iv measured 10 mins post dose (reference value: 107.4 to 148.3 mmHg); assay type: functional
Rattus norvegicus [4] = assay: Hypotensive activity in normotensive anesthetized Wistar rat assessed as diastolic blood pressure at 0.1 mg/kg, iv measured 60 mins post dose (reference value: 81.6 to 115.2 mmHg); assay type: functional
Rattus norvegicus [5] = assay: Hypotensive activity in normotensive anesthetized Wistar rat assessed as systolic blood pressure at 0.1 mg/kg, iv measured 5 mins post dose (reference value: 107.4 to 148.3 mmHg); assay type: functional
Rattus norvegicus [6] = assay: Hypotensive activity in normotensive anesthetized Wistar rat assessed as systolic blood pressure at 0.1 mg/kg, iv measured 20 mins post dose (reference value: 107.4 to 148.3 mmHg); assay type: functional
Rattus norvegicus [7] = assay: Hypotensive activity in normotensive anesthetized Wistar rat assessed as diastolic blood pressure at 0.1 mg/kg, iv measured 10 mins post dose (reference value: 81.6 to 115.2 mmHg); assay type: functional
Rattus norvegicus [8] = assay: Hypotensive activity in normotensive anesthetized Wistar rat assessed as systolic blood pressure at 0.1 mg/kg, iv measured 30 mins post dose (reference value: 107.4 to 148.3 mmHg); assay type: functional
Rattus norvegicus [9] = assay: Hypotensive activity in normotensive anesthetized Wistar rat assessed as diastolic blood pressure at 0.1 mg/kg, iv measured 20 mins post dose (reference value: 81.6 to 115.2 mmHg); assay type: functional
Mus musculus = assay: Toxicity in albino Swiss (CD-1) mouse assessed as effect on spontaneous locomotor activity by measuring number of crossings at 10 mg/kg, ip administered 30 mins prior to test measured for last 4 mins of 6 mins observation (reference value: 191.5 to 225.4); assay type: organism-based; conditions: in vivo

Row | Compound | Activity (Rattus norvegicus [1]) [mmHg] | inhibition (Rattus norvegicus [2]) | Activity (Rattus norvegicus [3]) [mmHg] | Activity (Rattus norvegicus [4]) [mmHg] | Activity (Rattus norvegicus [5]) [mmHg] | Activity (Rattus norvegicus [6]) [mmHg] | Activity (Rattus norvegicus [7]) [mmHg] | Activity (Rattus norvegicus [8]) [mmHg] | Activity (Rattus norvegicus [9]) [mmHg] | Activity (Mus musculus)
1 | COc1ccccc1N1CCN(CCCCOc2c(C)cccc2C)CC1.Cl | 103 | Active | 138.3 | 101.3 | 142.7 | 131.7 | 112.7 | 130.3 | 104 | –
2 | COc1ccccc1N1CCN(CCOCCOc2cccc(C)c2C)CC1.Cl.Cl | – | – | – | – | – | – | – | – | – | 190
